From US10188633B2, “Identification of small molecules that facilitate therapeutic exon skipping” (The Regents of the University of California, priority 2011, dated 2019)

What was measured:
DMD exon 51 = settings: cited from earlier work
[1] = cited from earlier work
[2] = test system: human DMD exon 50 GFP based reporter; experiment: BioMol high throughput screen in Ex50-GFP reporter C2C12 myoblasts, with or without AON6; assay type: cell-based, mouse; settings: With AON6 screen, compound 10 uM; for Fluorescence Plate 1 / Fluorescence Plate 2 / Fluorescence Plate 3: 48 h; for Fluorescence Plate 1: fluorescence normalized by subtracting DMSO carrier controls; for Fluorescence Plate 2 / Fluorescence Plate 3: normalized to DMSO carrier controls; for Average Fluorescence (n = 3): average of 3 replicate plates
From the text: Small molecule libraries were screened for exon skipping promoting activity in C2C12 myoblasts expressing a human DMD exon 50 GFP based reporter. […] In the reporter cells, successful skipping of DMD exon 50 creates in-frame GFP expression. Number of cells that were fluorescing was quantified using a high content cell imager in 384 well plate format. Fluorescence was normalized by subtracting the average fluorescence value of the carrier (DMSO) controls. Fluorescence readouts are plotted for the BioMol library screen both with (+AO) and without (−AO) from Source Plate 1 (containing the Orphan Ligand, Ion Channel, Enzyme Inhibitor, and Endocannabanoid libraries, n=300). Each point for the DMSO controls, all compounds, and the Top 5% from Source Plate 1 (n=15) represents the average normalized fluorescence of 6 replicates in the −AO screen and 3 replicates in the +AO screen. […] Individual points for dantrolene are plotted with the bold horizontal line indicating the median. The short horizontal lines interspersed among the data points indicate 1, 2, and 3 standard deviations away from the DMSO treatment mean fluorescence.
In contrast to prior screens aimed at identifying small molecules which impact exon skipping, our screen is unique at least because it relies on robust quantitation of a skipping reporter in the context of a muscle lineage cell in the presence and absence of suboptimal AO. These screens were performed using a mouse muscle cell line (C2C12) expressing a human DMD exon 50 GFP based reporter selected to minimize experimental variation and sensitivity in the context of an automated and quantitative fluorescent scanning system.
AO was added prior to small molecule incubation in an effort to identify molecules that facilitate AO skipping rather than AO delivery. The fluorescence induced by each compound was normalized to a vehicle controls per plate to correct for plate to plate variability. Fluorescence was averaged across replicate plates (n=6 without AO screen, n=3 with AO screen). Compounds were rank ordered based on average intensity of fluorescence and difference between the without AO and with AO screen (FIG. 1 and Table 2).
(§1) A stable clone was generated from C2C12 cells transfected with a human exon 50 DMD GFP reporter (ex50GFP) that has been previously described. Ex50GFP reporter myoblasts were seeded into uncoated 384 well plates and were incubated for 4 hours either with or without 300 nM of 2′-O-methyl phosphorothioate AON6 [5′[…] 3′ (SEQ ID NO:1)] targeting the human exon 50 splice donor site. Cells were transfected with AON6 using the FUGENE (Roche) transfection reagent per manufacturer's instructions. Following AON6 incubation, each component of the BioMol library (n=503) was screened at 10 uM concentration with a final concentration of the DMSO carrier being 1%. Forty-eight hours later fluorescence was measured using the MicroXpress high content imager and analyzed using MetaXpress. Immediately preceding imaging, DNA was stained with Hoescht for 30 min. The BioMol screen without AO (−AO) was performed in 6 replicates, and the with AO (+AO) screen was performed in 3 replicates. For the screen analysis raw fluorescence values were normalized to carrier controls present on each plate by subtracting the values. Negative fluorescence values were set to 0. The data from each compound were averaged from all replicates. For secondary screening by 12 or 16 point dose response, Ex50GFP myoblasts or C2C12 cells without the reporter were seeded on uncoated 384 well plates. A sub-optimal dose of AON6 targeting DMD exon 50 was added for 4 hours.

[3] = test system: human DMD exon 50 GFP based reporter; experiment: Secondary screening, 12 or 16 point titrations on the DMD exon 50 reporter cell line with or without AON6; assay type: cell-based, mouse; settings: for increase in fluorescence in the Ex50-GFP+AO compared to the reporter line without AO: 12 or 16 point titrations from 100 uM, positivity criterion (FIG. 5 legend: >10%); for dose response in Ex50-GFP reporter: 12 or 16 point titrations with AON6
Protocol: 12 or 16 point titrations of compounds were added to the Ex50-GFP and C2C12 myoblasts either with or without AON6.
as §1, with “hours. Following the 4 hour incubation, a compound dilution was added (beginning at 100 uM with 1:1 dilutions) for either 12 or 16 points. After a 48 hour incubation with compounds, DNA was stained with Hoescht, and fluorescence determined using the high content imager and analyzed with MetaXpress.” for “hours.”

[4] = test system: Ca2+-ATPase of sarcoplasmic reticulum; settings: at 0.5-2 μM ATP; cited from earlier work
DMD exon 31 = settings: cited from earlier work

Compound: Pro051: systemic 2′-O-methyl modified AO directed against DMD exon 51 (antisense UCAAGGAAGAUGGCAUUUCU; all 2'-O-methyl, backbone not given here)
- rescued dystrophin protein levels (DMD exon 51; systemic 2'-O-methyl AO, phase 1-2a): 1.8-15.6 % of normal
- 6 minute walk test at 48 weeks (DMD exon 51; weekly subcutaneous 6 mg/kg, non-placebo controlled extension): modest improvement

Compound: O=C1CN(/N=C/c2ncc(-c3ccc(Br)cc3)o2)C(=O)N1 [azumolene]
- water solubility relative to dantrolene [1]: more water soluble than dantrolene

Compound: CYCLOPIAZONIC ACID
- Fluorescence Plate 1 [2]: 29.57
- Fluorescence Plate 2 [2]: 33.40
- Fluorescence Plate 3 [2]: 17.24
- Average Fluorescence (n = 3) [2]: 26.74
- increase in fluorescence in the Ex50-GFP+AO compared to the reporter line without AO [3]: 10%
- dose response in Ex50-GFP reporter [3]: evidence of a dose response
- amount completely inhibiting the enzyme [4]: Induces the release of intracellular stored Ca2+, without increasing IP3 levels, via inhibition of endoplasmic reticulum Ca2+− ATPase. It is a highly specific inhibitor of the Ca2+− ATPase of sarcoplasmic reticulum, completely inhibiting the enzyme at 6-8 nmol/mg protein (at 0.5-2 μM ATP).

Compound: CC1CNCCN1S(=O)(=O)c1cccc2cnccc12 (centres unmarked) [H-7]
- Fluorescence Plate 1 [2]: 29.03
- Fluorescence Plate 2 [2]: 30.45
- Fluorescence Plate 3 [2]: 12.11
- Average Fluorescence (n = 3) [2]: 23.87
- increase in fluorescence in the Ex50-GFP+AO compared to the reporter line without AO [3]: 10%
- dose response in Ex50-GFP reporter [3]: evidence of a dose response

Compound: CCN1/C(=C/C(C)=O)Sc2ccc(OC)cc21 [TG003]
- mutant exon 31 skipping (DMD exon 31): increased mutant exon 31 skipping
